Measured values from US4404209A, “Analgesic mixture of nalbuphine and sulindac” (E. I. Du Pont de Nemours and Company, priority 1982, dated 1983).
Where two headings read alike, the source gives them in different places.

System: phenyl-p-benzoquinone induced writhing in mice
Details: oral; for % mice blocked: 40 min
Procedure: The phenyl-p-benzoquinone induced writhing test in mice [H. Blumberg et al., Proc. Soc. […] The method simply consists of reading the % ED50 DOSE for each dose ratio on the best fit regression analysis curve from the mouse isobologram, multiplying each component by its effective species dose, and then forming the ratio of the amount of nalbuphine to sulindac. […] [E. W. Pelikan, The Pharmacologist, 1, 73 (1959).]
The mixture is sonicated at 150 watts for 1-2 minutes with an ultrasound system, then shaken for two hours at 280 oscillations/minute with 15-20 gm of glass beads. The resultant suspension contains 16 mg/ml of sulindac; all dosing suspensions are prepared by dilution of the stock suspension with the Methocel®/Tween 80® vehicle; the vehicle control is Methocel®/Tween 80®. All suspensions are prepared fresh daily.
Each mouse is used only once, then discarded.
In order to study the interaction between nalbuphine and sulindac, 5 precise dosage ratios of nalbuphine hydrochloride and sulindac are selected.

Compound: CC1=C(CC(=O)O)c2cc(F)ccc2/C1=C\c1ccc([S+](C)[O-])cc1 (centres unmarked) [Sulindac, (Z)-5-fluoro-2-methyl-1-{[4-(methylsulfinyl)phenyl]methylene}-1H-indene-3-acetic acid]
- % mice blocked (nalbuphine HCl 0, sulindac 4.75 mg/kg): 20.0%
- % mice blocked (nalbuphine HCl 0, sulindac 9.5 mg/kg): 20.0%
- % mice blocked (nalbuphine HCl 0, sulindac 19.0 mg/kg): 46.7%
- % mice blocked (nalbuphine HCl 0, sulindac 38.0 mg/kg): 96.7%
- ED50 at 40 min, sulindac (95% confidence limits) (mouse, sulindac dose, alone or as component of the fixed-ratio combination): 21.2 mg/kg

Compound: Oc1ccc2c3c1O[C@H]1[C@@H](O)CC[C@@]4(O)[C@@H](C2)N(CC2CCC2)CC[C@]314 [Nalbuphine, (-)-17-(cyclobutylmethyl)-4,5α-epoxymorphinan-3,6α,14-triol]
- % mice blocked (nalbuphine HCl 5.45 mg/kg, sulindac 0): 16.7%
- % mice blocked (nalbuphine HCl 10.9 mg/kg, sulindac 0): 40.0%
- % mice blocked (nalbuphine HCl 21.8 mg/kg, sulindac 0): 36.7%
- % mice blocked (nalbuphine HCl 43.6 mg/kg, sulindac 0): 63.3%
- % mice blocked (nalbuphine HCl 87.2 mg/kg, sulindac 0): 90.0%
- ED50 at 40 min, nalbuphine HCl (95% confidence limits) (mouse, nalbuphine HCl dose, alone or as component of the fixed-ratio combination): 30.8 mg/kg
